Patent US11434205B2, “Substituted imidazole carboxylate derivatives and the use thereof” (priority 2018, dated 2022)

Experiments:
[1] = test system: rats; test: Loss of righting reflexes (LORR) assay in rats, ED50 by up and down method; type: in vivo, rat; conditions: tail vein, class symbols; for ED50: Rattus norvegicus
Experimental: The Anesthetic Activity of the Compounds was Assessed in Rats Using a Loss of Righting Reflexes (LORR) Assay
(§1) Adult male Sprague-Dawley rats (250-300 g) were selected for the experiment. […] The anesthesia effects of the compounds were assessed in rats using a LORR assay and a period >30 s was considered as an indicator of general anesthesia. Then the up and down method was used to determine 50% effective dose (ED50). The drugs were administered through the tail vein of rats in a volume of 0.6 mL and at a rate of 0.1 mL/s.

[2] = test system: rats
Experimental: as §1

[3] = test system: secretion of corticosterone, H295R cell line; test: cells; type: cell-based; conditions: for Corticosterone as an indicator to determine the presence of inhibition: H295R; for EC50: Homo sapiens, NCI-H295R, read-out: EC50 (Corticosterone)
Experimental: (§2) The Effects of the Compounds on Adrenocortical Function In Vitro Test
(§3) Then secretion of the cortisol and corticosterone in the supernatant, was measured using HPLC-MS/MS method to determine whether the compounds of the present invention had adrenotoxic potential.

[4] = test system: secretion of cortisol, H295R cell line; test: cells; type: cell-based; conditions: for Cortisol as an indicator to determine the presence of inhibition: H295R; for EC50: Homo sapiens, NCI-H295R, read-out: EC50 (Cortisol)
Experimental: as §2, §3

[5] = test system: rats; test: Pharmacological characteristics at equivalent doses (2×ED50) in rats; conditions: 2×ED50, tail vein; for Adverse reactions: Red urine (incidence): DMSO solution (DMSO alone 10/10); for Onset time: time of LORR; for Adverse reactions: Tremor (incidence): animals affected/animals
Experimental: Comparison of Pharmacological Characteristics of the Compounds at Equivalent Doses (2×ED50) in Rats
Adult male Sprague-Dawley rats (250-300 g) were selected for the experiment (n=8). […] The drugs were administered at a dose twice their ED50 through the tail vein of rats in a volume of 0.6 mL and at a rate of 0.1 mL/s. In addition, the time of LORR was recorded as the onset time of anesthesia. […] Furthermore, the duration of the pharmacological effects is sufficient to meet the time requirements for rapid induction of general anesthesia and for diagnostic examinations, some short invasive clinical examinations, or operations.

Compound | ED50 [1] [mg/kg] | Approximate therapeutic index [2] | Minimal lethal dose [2] [mg/kg] | Corticosterone as an indicator to determine the presence of inhibition ([3]; Table C3) | EC50 [3] [µM] | Cortisol as an indicator to determine the presence of inhibition ([4]; Table C3) | EC50 [4] [µM] | Righting reflex duration [5] [min] | Adverse reactions: Red urine (incidence) [5] | Onset time [5] [min] | Corticosterone as an indicator to determine the presence of inhibition ([3]; Table A3) | Cortisol as an indicator to determine the presence of inhibition ([4]; Table A3) | Adverse reactions: Tremor (incidence) [5] | Adverse reactions: Myoclonus (incidence) [5] | ED50 (mg/kg) [1] | Sedation duration (mg/kg) [5]
CCC(=O)C1(OC(=O)c2cncn2[C@H](C)c2ccccc2)CC1 [Compound C16] | 0.5 to 1 | >14 | >10 | 0 | > 1 | 0 | > 1 | 1.31 ± 0.95 | Red urine (8/8) | 0.73 ± 0.23 | – | – | – | – | – | –
C[C@H](c1ccccc1)n1cncc1C(=O)OCC1(C(F)F)CCC1 [Compound A19] | 0.1 to 0.5 | >10 | >5 | – | > 10 | – | > 10 | 6.13 ± 2.87 | Red urine (8/8) | 0.36 ± 0.16 | 0 | 0 | – | – | – | –
CCC1(COC(=O)c2cncn2[C@H](C)c2ccccc2)CC1 [Compound A9] | 0.1 to 0.5 | >13 | >5 | – | > 10 | – | > 10 | 4.80 ± 1.25 | 8/8 | 0.40 ± 0.15 | 0 | 0 | 5/8 | – | – | –
C#CC1(OC(=O)c2cncn2[C@H](C)c2ccccc2)CSC1 [Compound D27] | 0.5 to 1 | >10 | >10 | – | – | – | – | 2.15 ± 1.03 | Red urine (8/8) | 0.32 ± 0.09 | – | – | – | – | – | –
CC#CC1(OC(=O)c2c(F)ncn2[C@H](C)c2ccccc2)CSC1 [Compound E91] | 0.5 to 1 | >6 | >20 | – | – | – | – | 1.24 ± 0.63 | (8/8) | 0.48 ± 0.21 | – | – | – | – | – | –
CC#CC1(OC(=O)c2cncn2[C@H](C)c2ccccc2)CSC1 [Compound D29] | 0.5 to 1 | >13 | >10 | – | – | – | – | 1.19 ± 0.64 | (8/8) | 0.73 ± 0.10 | – | – | Tremor (3/8), Red urine | – | – | –
C[C@H](c1ccccc1)n1cncc1C(=O)OC1(C)CCC1=O (some centres unmarked) [Compound A13] | 0.1 to 0.5 | >10 | >4 | – | > 10 | – | > 10 | 2.31 ± 2.14 | Red urine (8/8) | 0.56 ± 0.12 | 0 | 0 | – | – | – | –
C[C@H](c1ccccc1)n1cncc1C(=O)OC1(CC2CO2)COC1 (some centres unmarked) [Compound B22] | 0.5 to 1 | >10 | >17 | – | – | – | – | 1.24 ± 0.12 | 8/8 | 0.92 ± 0.14 | – | – | 4/8 | – | – | –
C=CC#CC(C)OC(=O)c1cncn1[C@H](C)c1ccccc1 (some centres unmarked) [Compound D59] | 0.1 to 0.5 | >11 | >13 | – | – | – | – | 5.83 ± 1.06 | Red urine (8/8) | 0.15 ± 0.02 | – | – | – | – | – | –
CCC(C)(C)OC(=O)c1cncn1[C@H](C)c1ccccc1 [Compound C19] | 0.1 to 0.5 | >20 | >5 | 0 | > 1 | 0 | > 1 | 1.26 ± 0.99 | Red urine (8/8) | 0.45 ± 0.23 | – | – | – | – | – | –
C[C@H](c1ccccc1)n1cncc1C(=O)OC1(C)COC1 [Compound B28] | 0.1 to 0.5 | >13 | >10 | – | – | – | – | 3.32 ± 0.72 | Red urine (8/8) | 0.29 ± 0.15 | – | – | – | – | – | –
CSCCSC(=O)c1cncn1[C@H](C)c1ccccc1 [Compound C30] | 0.5 to 1 | >11 | >11 | 0 | – | 0 | > 1 | 3.67 ± 1.48 | Red urine (8/8) | 0.23 ± 0.03 | – | – | – | – | – | –
C=CC(CC)(CC)OC(=O)c1cncn1[C@H](C)c1ccccc1 [Compound D24] | 0.5 to 1 | >13 | >7 | – | – | – | – | 0.80 ± 0.20 | Red urine (8/8) | 0.56 ± 0.31 | – | – | – | – | – | –
C=C=CC(CC)OC(=O)c1c(F)ncn1[C@H](C)c1ccccc1 (some centres unmarked) [Compound E77] | 0.5 to 1 | >12 | >10 | – | – | – | – | 1.90 ± 0.74 | urine (8/8) | 0.11 ± 0.03 | – | – | (2/8), Red | – | – | –
CC#CC1(OC(=O)c2cncn2[C@H](C)c2ccccc2)CCSC1 (some centres unmarked) [Compound D30] | 0.5 to 1 | >11 | >5 | – | – | – | – | 1.32 ± 0.61 | urine (8/8) | 0.43 ± 0.22 | – | – | – | Myoclonus (2/8), Red | – | –
CC#CC(C)(C)OC(=O)c1cncn1[C@H](C)c1ccccc1 [Compound D31] | 0.5 to 1 | >13 | >9 | – | – | – | – | 2.65 ± 1.10 | Red urine (8/8) | 0.41 ± 0.15 | – | – | – | – | – | –
C#CC1(OC(=O)c2c(F)ncn2[C@H](C)c2ccccc2)COC1 [Compound E4] | – | >20 | >10 | – | – | – | – | 4.38 ± 1.29 | (8/8) | 0.45 ± 0.05 | – | – | – | – | B (B means that the measured ED50 is in the range of 0.10-0.50 mg/kg (excluding 0.10 mg/kg, including 0.50 mg/kg).) | 10.65 ± 1.31
C=C=CC1(OC(=O)c2c(F)ncn2[C@H](C)c2ccccc2)CCCCC1 [Compound E36] | 0.5 to 1 | >26 | >5 | – | – | – | – | 2.21 ± 1.86 | (8/8) | 0.49 ± 0.17 | – | – | – | – | – | –
